From ChEMBL document CHEMBL3988442, “University of Dundee, Small-Polar-MMV Screening Library” (2021)

Biological target: Tryptophan--tRNA ligase (Mycobacterium tuberculosis (strain ATCC 25618 / H37Rv), UniProt P9WFT3)
Experiment: Biochemical assay for Mt-TrpRS
Type: functional

Sequence of Tryptophan--tRNA ligase (P9WFT3 whole entry): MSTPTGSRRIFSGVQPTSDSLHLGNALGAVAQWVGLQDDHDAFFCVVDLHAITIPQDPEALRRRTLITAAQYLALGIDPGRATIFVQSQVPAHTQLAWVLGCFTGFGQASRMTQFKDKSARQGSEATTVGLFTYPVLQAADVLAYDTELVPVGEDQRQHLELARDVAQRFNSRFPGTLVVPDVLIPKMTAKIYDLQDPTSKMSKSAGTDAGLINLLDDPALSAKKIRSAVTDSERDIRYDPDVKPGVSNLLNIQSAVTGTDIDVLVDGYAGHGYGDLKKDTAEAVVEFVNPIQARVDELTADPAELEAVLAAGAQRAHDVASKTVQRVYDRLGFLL

SMILES | IC50 [µM]
CN(C)CC1(O)CCN(S(=O)(=O)c2cccc(F)c2)C1 (centres undefined) | > 195
CC(C)CN1C[C@H](COCc2ccccc2)Oc2ncccc2C1=O | > 195
O=C(C1CC1)N1CCN2C[C@@H](CO)[C@H](c3ccccc3)[C@H]2C1 | > 195
O=C(c1ccc(F)cc1)N1C[C@@H]2COC[C@]2(COc2cccnc2)C1 | > 195
COc1ccccc1C(=O)N1CC(=O)N(CC2CC2)CC(O)C1 (centres undefined) | > 195
C=Cn1ncc(CN2CCC(c3ncc(Cl)cc3S(C)(=O)=O)CC2)c1C | > 195
CO[C@H]1CN(Cc2cc(F)ccc2F)CC[C@@]12CCCO2 | > 195
CCn1cc(S(=O)(=O)NC(=O)CCc2c[nH]c3ccccc23)cn1 | > 195
COCCn1c2c(ccc1=O)CC(NCc1cnn(C)c1)CC2 (centres undefined) | > 195
Cn1cc(-c2cc(C(F)(F)F)n(CCCN)n2)cn1 | > 195
CCn1cnnc1C1CCN(C(=O)c2cc(C)c(C)s2)CC1 | > 195
C[C@]1(O)CN(CCO)CC[C@@H]1Oc1cccc(F)c1 | > 195
Cc1nc(Nc2ncccn2)cc(C2CCCN2C)n1 (centres undefined) | > 195
O=S(=O)(c1ccccc1)N1C(CN2CCOCC2)[C@]2(O)CC[C@H]1CC2 (some centres undefined) | > 195
Cc1ccc(S(=O)(=O)N2CCC(O)(CN(C)C)C2)cc1 (centres undefined) | > 195
CC(=O)N1N=C(c2cccs2)OC1C(=O)NCCc1cccc(Cl)c1 (centres undefined) | > 195
Cc1cnc(N)c(C(=O)C2CCN(C(=O)C3CCC3)CC2)c1 | > 195
CC(C)CC(=O)N1CC(=O)N(Cc2ccco2)CC(O)C1 (centres undefined) | > 195
Cn1nc(C#N)c2c1CN(C(=O)c1ccco1)CCC2 | > 195
CSCCC(NC(=O)c1nc(SC)ncc1Cl)C(=O)O (centres undefined) | > 195
CNc1cccc(C2CCCN(C(=O)c3ccn(C)n3)C2)n1 (centres undefined) | > 195
O=C(NCCCn1ccnc1)c1cccnc1OCC(F)(F)F | > 195
CCCNc1ccc(C(=O)NCCc2cccc(OC)c2)cn1 | > 195
CN1CC[C@@H]2OC[C@H](C(=O)N(C)Cc3ccccn3)C[C@@H]2C1 | > 195
c1ccc(CO[C@@H]2CN(Cc3ccoc3)[C@@H]3COC[C@@H]32)nc1 | > 195

SMILES | IC50 [µM]
CC(=O)N1CCN(CC(N)=O)CC(COc2ccccc2)C1 (centres undefined) | > 195
CN1C(=O)CC(C(=O)O)C12CCN(Cc1ccc(Cl)c(F)c1)CC2 (centres undefined) | > 195
O=C(c1cnco1)N1C[C@@H](O)[C@H](Oc2cccc(F)c2)C1 | > 195
CN(C)CCn1c([C@H]2CCCO2)cc2cccnc21 | > 195
Cc1cc(CS(=O)(=O)CC(=O)N2c3ccccc3CC2C)no1 (centres undefined) | > 195
CSc1ccccc1C(=O)NCc1cc2n(n1)CCCN(CC(C)C)C2 | > 195
O=S1(=O)CCC(N(Cc2nc3ccccc3o2)Cc2cccs2)C1 (centres undefined) | > 195
O=C(CN1CCOC1=O)N1CC[C@@H](c2ccc3ccccc3c2)[C@H](O)C1 | > 195
Cn1cc(C(=O)NCc2cncc3c2CCNC3)cn1 | > 195
Cn1ncc(NC(=O)c2noc3c2CCCC3)c1C(N)=O | > 195
NC(=O)C1CCN(C(C(=O)O)c2ccc(Cl)c(C(F)(F)F)c2)CC1 (centres undefined) | > 195
CN1CCO[C@@H]2CN(C(=O)NCc3ccccc3)CC[C@@H]2C1 | > 195
O=c1[nH]c(-c2ccncc2)ncc1-c1ccnc(NC2CC2)n1 | > 195
O=C(CCC1CCCC1)N1CCCC(c2ncc3c(n2)CCNC3)C1 (centres undefined) | > 195
CS(=O)(=O)c1nccn1CCOc1ccccc1F | > 195
Cc1nn(C)c(N(C)C)c1CNCCS(C)(=O)=O | > 195
O=C(c1cccnc1Oc1ccc(Cl)cc1)N1CC[C@@H](O)C1 | > 195
COc1ccc(S(=O)(=O)N2CCC(O)(CN(C)C)C2)cc1 (centres undefined) | > 195
COCC(=O)N1CCC(C(=O)c2cc(C)cnc2N)CC1 | > 195
CCN(c1ccc(C(=O)N2CCCC2c2cnn(C)c2)cn1)C(C)C (centres undefined) | > 195
O=C(O)Cc1nc2nccc(-c3ccc(F)cc3)n2n1 | > 195
Cc1cnc(CC2COCCN(Cc3nccn3C)C2)cn1 (centres undefined) | > 195
CC(C)N(C)Cc1cncc2c1CCN(CC(=O)N(C)C)C2 | > 195
O=C(c1ccccc1)N1CCO[C@@H]2CN(Cc3ccc[nH]3)C[C@@H]2C1 | > 195
CC(C)(C)C(=O)CN1Cc2ccccc2NCCC1=O | > 195

SMILES | IC50 [µM]
Cc1c[nH]nc1C1CCN(C(=O)C2CCC2)CC1 | > 195
Cc1nc(CN2CCC3(C2)CN(Cc2ccco2)C3)cs1 | > 195
Fc1cccc(-c2nc(CN3CCCC3Cn3cccn3)co2)c1 (centres undefined) | > 195
CN(C)C(=O)CO[C@H]1CN(Cc2ccsc2)[C@@H]2COC[C@H]12 | > 195
NC(=O)CN1CCCC(Cc2ccc(N)nn2)C1 (centres undefined) | > 195
CC(C)n1c2ccccc2c2c1cc(C(=O)N(C)C)n2S(C)(=O)=O | > 195
CC(=O)Nc1nc(C2CCN(C(=O)c3cncs3)CC2)cs1 | > 195
O=C(c1ccccn1)N1CCC(c2nc(O)cc(-c3ccncc3)n2)C1 (centres undefined) | > 195
COc1ccc2c(c1)CN(Cc1ccco1)C(=O)CCN2 | > 195
CSc1ncc(Cl)c(C(=O)NC(Cc2ccccc2)C(=O)O)n1 (centres undefined) | > 195
Cc1nc(N(C)CCN(C)C)c2cnn(C)c2n1 | > 195
Cn1ccc(C(=O)N2CCC(Cc3cnc4[nH]ccc4c3)C2)n1 (centres undefined) | > 195
CC(C)N1CCO[C@@H]2CN(C(=O)NCc3ccccc3)CC[C@@H]2C1 | > 195
N#Cc1ccc(CN2CCCCC2Cn2cccn2)cc1 (centres undefined) | > 195
CC(C)N1CCCC2(CCN(Cc3noc(C4CCCC4)n3)C2)C1=O (centres undefined) | > 195
CN(C)CC(=O)N1C[C@@H]2CC[C@H](Oc3ccccc3)[C@@H]2C1 | > 195
Cc1cncc(C2CCN(C(=O)CCc3ccnn3C)CC2)n1 | > 195
Cc1nccn1CC1CCCN(C(=O)c2cnn(C)c2)C1 (centres undefined) | > 195
CS(=O)(=O)NC1CCN(C(=O)CCC2CCCO2)CC1 (centres undefined) | > 195
Cc1noc(C2(C)CCCN(C(=O)c3cccnc3)C2)n1 (centres undefined) | > 195
Cn1cccc1C(=O)N1CC2(CCN(C(=O)c3cccnc3)C2)C1 | > 195
CCOCCN1CCC(C(=O)c2cc(F)ccc2F)CC1 | > 195
c1ccc(OCC2C[C@@H]3[C@@H](C2)OCCN3Cc2ccoc2)nc1 (some centres undefined) | > 195
COCC(=O)N1CC(=O)c2sc(Nc3ccc(F)cc3F)nc2C1 | > 195
COCc1cc(O)nc(C2CCCN(Cc3cccc(Cl)c3Cl)C2)n1 (centres undefined) | > 195

SMILES | IC50 [µM]
N#Cc1cccc(CN2CC[C@@H]3CN(c4ncccn4)CCO[C@@H]3C2)c1 | > 195
COc1ccc(CN2CC[C@H](NC(C)=O)[C@@H](O)CC2)c(F)c1 | > 195
O=C1CO[C@H]2CN(Cc3ccccc3Br)C[C@@H]2N1 | > 195
COCCN1C(=O)CC[C@@H]2[C@H]1CCN2S(=O)(=O)c1cccs1 | > 195
CCN(CC)C1COc2ccc(Br)cc2C1=O (centres undefined) | > 195
Cc1cc(C)n(CC2CCCN2C(=O)c2c(C)noc2C)n1 (centres undefined) | > 195
CCS(=O)(=O)N1CC(=O)N(Cc2ccccc2OC)CC(O)C1 (centres undefined) | > 195
CNC(=O)c1cc(C2CCCNC2)n[nH]1 (centres undefined) | > 195
CS(=O)(=O)c1nccn1Cc1ccc(F)cc1Cl | > 195
O=C1CCC(=O)N1c1nn(Cc2cccc(F)c2)cc1Cl | > 195
Cc1cc(NC(=O)CNC2CCc3nc(C(C)C)nn3C2)no1 (centres undefined) | > 195
Cc1cccc(C2CCCN(C(=O)c3ccncc3)C2)n1 (centres undefined) | > 195
Fc1ccc(Cc2cnc(C3CCCN3)cn2)cc1 (centres undefined) | > 195
NC(=O)C1(CCCc2ccncc2)CCCN1 (centres undefined) | > 195
CN(C)c1nccc(C2CCN(C3CCCCC3O)CC2)n1 (centres undefined) | > 195
COCC(=O)N1CCCCC1c1nccc(C)n1 (centres undefined) | > 195
CN1CCCC(CCCc2cccnc2)(C(N)=O)C1 (centres undefined) | > 195
c1cnc(N2CCCC(c3n[nH]c4ncccc34)C2)nc1 (centres undefined) | > 195
CCc1n[nH]c(C(=O)NCCn2ccc(C)n2)c1C | > 195
CC(=O)N1N=C(c2ccccc2)OC1C(=O)NCCc1cccc(F)c1 (centres undefined) | > 195
O=C1CCC(=O)N1c1nn(Cc2ccccc2)cc1Cl | > 195
CN(C)CCN1C[C@@H]2CN(c3ccccc3)C[C@@H]2C1=O | > 195
CN1CCC(Cc2cncc(-c3ccccc3C(=O)O)n2)C1 (centres undefined) | > 195
Fc1cccc(CN2C[C@@H]3CN(c4ncccn4)C[C@@H]3C2)c1 | > 195
c1cnc(N2CCC(c3n[nH]c4ncccc34)C2)nc1 (centres undefined) | > 195

SMILES | IC50 [µM]
CNC(=O)C1(C)CN(c2nc(C)cc(C)n2)CCO1 (centres undefined) | > 195
CC(=O)N1CCC(C(=O)N2CCC2c2nc(-c3ccc(C)s3)no2)CC1 (centres undefined) | > 195
Cc1nc(C2CCCN2CC(=O)N(C)Cc2ccsc2)no1 (centres undefined) | > 195
Cc1cc(N(C)C)nc(C2CCNC2)n1 (centres undefined) | > 195
Cc1ccc(CNc2nc(O)cc(C3CC(=O)N(C)C3)n2)cc1 (centres undefined) | > 195
CCCC(=O)N1CCCCC1c1nccc(C)n1 (centres undefined) | > 195
O=C(NS(=O)(=O)c1cccnc1)C1CC(c2ccccc2)=NO1 (centres undefined) | > 195
COc1cccc(OC)c1CN1CC(O)CN(S(C)(=O)=O)CC1=O (centres undefined) | > 195
CNC(=O)c1cnn2c(C3CCCN3C)ccnc12 (centres undefined) | > 195
CNC(=O)Nc1cnc2cc(Cl)ccc2c1O | > 195
O=C(Cc1cccc(O)c1)N1CCCC(O)(CN2CCCC2)CC1 (centres undefined) | > 195
Cc1nc(C2CCCN2C(=O)COc2ccccc2)ncc1C(N)=O (centres undefined) | > 195
COc1ccc(C(=O)Nc2cccc(SC)c2)c(OC)n1 | > 195
COCCN1CCN(Cc2cnc(C(C)C)nc2)CC1 | > 195
O=C(NC1CC1)[C@@H]1C[C@@H]2CCN(Cc3ccoc3)C[C@@H]2O1 | > 195
CC(C(=O)NCc1ccc(N2CCCC2)nc1)S(C)(=O)=O (centres undefined) | > 195
Cc1ccc2c(c1)[C@@H](CC(=O)N(C)C)CCO2 | > 195
c1cncc(CN2CCc3ncnc(C4CC4)c3CC2)c1 | > 195
Cc1ccc2c(c1C)OCC2NCc1ccc(C#N)cc1 (centres undefined) | > 195
CN1CC(c2cc(O)nc(NCc3ccc(Cl)cc3)n2)CC1=O (centres undefined) | > 195
O[C@@H]1CN(Cc2ccncc2)C[C@H]1Oc1ccccc1 | > 195
Cc1ccccc1-c1cncc(C2CCN(CCO)CC2)n1 | > 195
Cc1ccc(C(=O)NS(=O)(=O)c2ccccc2F)c(=O)[nH]1 | > 195
CN(C)c1cncc(C2CCN(CC(N)=O)CC2)n1 | > 195
